pIC50: −log10 of the molar value.
Columns and labels:
ABL1 = assay: KAM-matrix competition in K562 lysate; assay type: binding, human
Procedure: For synthesis of KAM-derivatized resin, packed NHS-activated sepharose 4 fast flow resin (volume = 2 mL; GE Healthcare) was washed with anhydrous DMSO (3 × 10 mL). To the washed NHS-activated sepharose resin was added 0.5 mM KAM in anhydrous DMSO (8 mL; 2 μmol compound/mL of resin), followed by the addition of triethylamine (30 μL). The reaction mixture was vortexed to mix and pelleted by centrifugation (100 x g, 2 min). An aliquot of the supernatant (50 μL) was saved for LC/MS analysis. The reaction mixture was allowed incubate overnight at room temp with end-over-end rotating agitation. On the following day, the reaction mixture was pelleted by centrifugation (100 x g, 2 min). An aliquot of the supernatant (50 μL) was saved for LC/MS analysis. […] 2-(2-Aminoethoxy)ethanol (100 μL; Sigma-Aldrich) was added to the reaction mixture, vortexed, and incubate overnight at room temp with end-over-end agitation. The KAM-derivatized resin was then washed with anhydrous DMSO (3 × 10 mL) and 95% EtOH (3 × 10 mL).
(§1) Data were visualized for further analysis using Spotfire DXP.

MAP2K5 = molecular target: T1, MAP2K5 (Homo sapiens, UniProt Q13163); assay: KAM-matrix competition in K562 lysate; assay type: binding; conditions: relative to 0 uM KAM = 0;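 also: median log10 fold change of treatment over DMSO control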
T1 construct: endogenous in cells; host or cells: K562
T1 sequence (Q13163 1-448): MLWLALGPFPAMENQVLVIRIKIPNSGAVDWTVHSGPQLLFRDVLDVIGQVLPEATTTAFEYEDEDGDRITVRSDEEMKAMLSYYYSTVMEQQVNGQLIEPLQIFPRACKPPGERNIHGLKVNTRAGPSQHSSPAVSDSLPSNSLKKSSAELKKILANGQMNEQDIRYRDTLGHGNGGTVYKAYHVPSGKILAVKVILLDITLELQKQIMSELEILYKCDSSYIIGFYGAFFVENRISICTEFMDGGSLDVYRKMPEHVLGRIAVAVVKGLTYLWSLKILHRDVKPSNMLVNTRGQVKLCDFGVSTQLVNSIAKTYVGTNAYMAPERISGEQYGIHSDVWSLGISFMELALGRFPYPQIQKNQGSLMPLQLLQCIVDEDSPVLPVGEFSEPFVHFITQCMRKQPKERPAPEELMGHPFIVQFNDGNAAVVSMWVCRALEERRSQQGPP
Procedure: Supplement 12953_2017_125_MOESM1_ESM.zip/MS_Supp Info.xlsx, sheet "KAM" | column: 10 uM KAM; 1 uM KAM; 0.1 uM KAM; 0.01 uM KAM

NRBP1 = NRBP1 (Homo sapiens, UniProt Q9UHY1); assay: biochemical
VRK3 = molecular target: T2, VRK3 (Homo sapiens, UniProt Q8IV63); assay: Imatinib-matrix competition in K562 lysate; assay type: binding; conditions: read-out: RB50 (the source's name)
T2 construct: endogenous in cells; host or cells: K562
Excerpt: as §1

TRRAP = molecular target: T3, TRRAP (Homo sapiens, UniProt Q9Y4A5); assay: Imatinib-matrix competition in K562 lysate; assay type: binding; conditions: read-out: RB50 (the source's name)
T3 construct: endogenous in cells; host or cells: K562
Excerpt: as §1

CDC7 = molecular target: T4, CDC7 (Homo sapiens, UniProt O00311); assay: Imatinib-matrix competition in K562 lysate; assay type: binding; conditions: read-out: RB50 (the source's name)
T4 construct: endogenous in cells; host or cells: K562 lysate
Excerpt: as §1

TTN = molecular target: T5, TTN (Homo sapiens, UniProt Q8WZ42); assay: Imatinib-matrix competition in K562 lysate; assay type: binding; conditions: read-out: RB50 (the source's name)
T5 construct: endogenous in cells; host or cells: K562
Excerpt: as §1

RPS6KB2 = molecular target: T6, RPS6KB2 (Homo sapiens, UniProt Q9UBS0); assay: Imatinib-matrix competition in K562 lysate; assay type: binding; conditions: read-out: RB50 (the source's name)
T6 construct: endogenous in cells; host or cells: K562
Excerpt: as §1

SCYL1 = molecular target: T7, SCYL1 (Homo sapiens, UniProt Q96KG9); assay: biochemical
T7 sequence (Q96KG9 1-808): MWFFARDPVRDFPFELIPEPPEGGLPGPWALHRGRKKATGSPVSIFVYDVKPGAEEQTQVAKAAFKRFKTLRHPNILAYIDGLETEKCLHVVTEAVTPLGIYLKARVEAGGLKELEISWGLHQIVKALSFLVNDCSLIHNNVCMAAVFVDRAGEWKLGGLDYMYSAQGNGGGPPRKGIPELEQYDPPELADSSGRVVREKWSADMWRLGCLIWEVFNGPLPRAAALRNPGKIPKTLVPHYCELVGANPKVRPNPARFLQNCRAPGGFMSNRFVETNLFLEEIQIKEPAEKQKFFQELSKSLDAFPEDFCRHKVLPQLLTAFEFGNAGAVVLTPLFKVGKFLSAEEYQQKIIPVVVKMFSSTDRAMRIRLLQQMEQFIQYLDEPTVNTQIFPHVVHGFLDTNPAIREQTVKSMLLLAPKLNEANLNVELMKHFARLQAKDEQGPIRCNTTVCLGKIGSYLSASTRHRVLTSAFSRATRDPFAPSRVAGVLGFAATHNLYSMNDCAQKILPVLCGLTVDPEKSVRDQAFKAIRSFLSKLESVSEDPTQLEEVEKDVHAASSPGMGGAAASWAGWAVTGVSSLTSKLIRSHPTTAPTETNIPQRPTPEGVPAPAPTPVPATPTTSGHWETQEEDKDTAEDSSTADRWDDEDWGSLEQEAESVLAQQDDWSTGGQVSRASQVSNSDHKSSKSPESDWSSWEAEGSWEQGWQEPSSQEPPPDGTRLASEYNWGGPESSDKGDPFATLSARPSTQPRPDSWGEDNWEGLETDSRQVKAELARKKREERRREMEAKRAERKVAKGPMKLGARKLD

ATM = ATM (Homo sapiens, UniProt Q13315); assay: biochemical
PSKH2 = PSKH2 (Homo sapiens, UniProt Q96QS6); assay: biochemical
PIK3R4 = molecular target: T8, PIK3R4 (Homo sapiens, UniProt Q99570); assay: Imatinib-matrix competition in K562 lysate; assay type: binding; conditions: read-out: RB50 (the source's name)
T8 construct: endogenous in cells; host or cells: K562

BRDT = BRDT (Homo sapiens, UniProt Q58F21); assay: biochemical

N#CCc1ccc(Nc2nc(NCCCN)cc(Nc3cc(C4CC4)[nH]n3)n2)cc1 [KAM]
median Log10 fold change (ABL1; 0.001 uM KAM): -0.005017
median Log10 fold change (ABL1; 0.01 uM KAM): -0.004253
median Log10 fold change (ABL1; 0.1 uM KAM): -0.1612
median Log10 fold change (ABL1; 1 uM KAM): -0.353
median Log10 fold change (ABL1; 10 uM KAM): -0.4826
pIC50 (ABL1; ABL1, KAM-based affinity matrix, K562 lysates, read-out: RB50 (the source's name)): 6.12
0.01 uM KAM (MAP2K5): 0.01409
0.1 uM KAM (MAP2K5): -0.1362
1 uM KAM (MAP2K5): -0.4773
10 uM KAM (MAP2K5): -0.5729

Cc1ccc(NC(=O)c2ccc(CN3CCN(C)CC3)cc2)cc1Nc1nccc(-c2cccnc2)n1 [Imatinib]
pIC50 (NRBP1): < 5.00
pIC50 (VRK3): < 5.00
pIC50 (TRRAP): < 5.00
pIC50 (CDC7): < 5.00
pIC50 (TTN): < 5.00
pIC50 (RPS6KB2): < 5.00
pIC50 (SCYL1): < 5.00
pIC50 (ATM): < 5.00
pIC50 (PSKH2): < 5.00
pIC50 (PIK3R4): < 5.00
pIC50 (BRDT): < 5.00

— publication PMC5513037, “Examining the influence of specificity ligands and ATP-competitive ligands on the overall effectiveness of bivalent kinase inhibitors” (Proteome Science, 2017)
